Experimental data: publication PMC7503225, “Repositioning Dequalinium as Potent Muscarinic Allosteric Ligand by Combining Virtual Screening Campaigns and Experimental Binding Assays” (International Journal of Molecular Sciences, 2020)

Columns and labels:
hM4 muscarinic receptor = biological target: T1, hM4 muscarinic receptor (Homo sapiens, UniProt P08173); experiment: Equilibrium inhibition binding with [3H]-NMS, CHO cell membranes; conditions: [3H]-NMS 0.2 nM, CHO membranes, mean ± SEM of 3-4 experiments; read-out: pKi hM4 (converted)
T1 construct: expressed in transfected cells; host or cells: CHO cells, stably transfected; membrane fractions
T1 sequence (P08173 1-479): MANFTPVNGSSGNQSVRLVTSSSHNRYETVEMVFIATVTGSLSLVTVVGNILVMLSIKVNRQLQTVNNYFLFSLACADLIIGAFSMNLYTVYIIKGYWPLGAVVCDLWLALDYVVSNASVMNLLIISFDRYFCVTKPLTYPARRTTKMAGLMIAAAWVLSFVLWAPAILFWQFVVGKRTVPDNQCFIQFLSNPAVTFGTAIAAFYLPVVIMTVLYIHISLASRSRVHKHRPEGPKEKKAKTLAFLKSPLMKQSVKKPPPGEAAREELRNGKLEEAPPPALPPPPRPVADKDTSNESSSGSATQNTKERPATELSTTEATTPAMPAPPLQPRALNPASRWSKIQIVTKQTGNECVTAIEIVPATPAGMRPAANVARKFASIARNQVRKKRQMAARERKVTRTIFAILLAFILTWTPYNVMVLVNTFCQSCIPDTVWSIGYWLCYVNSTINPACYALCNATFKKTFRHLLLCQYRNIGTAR
Outline: (§1)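 Membranes from CHO cells stably expressing the human subtype (25–70 µg/mL) incubated with [3H]-NMS for 2 h at room temperature, filtered and counted; nonspecific binding set with 10 µM atropine. IC50 from nonlinear fits converted to Ki; 3-4 independent experiments in duplicate.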

hM5 muscarinic receptor = biological target: T2, hM5 muscarinic receptor (Homo sapiens, UniProt P08912); experiment: as above; conditions: [3H]-NMS 0.2 nM, CHO membranes, mean ± SEM of 3-4 experiments; read-out: pKi hM5 (converted)
T2 construct: expressed in transfected cells; host or cells: CHO cells, stably transfected; membrane fractions
T2 sequence (P08912 1-532): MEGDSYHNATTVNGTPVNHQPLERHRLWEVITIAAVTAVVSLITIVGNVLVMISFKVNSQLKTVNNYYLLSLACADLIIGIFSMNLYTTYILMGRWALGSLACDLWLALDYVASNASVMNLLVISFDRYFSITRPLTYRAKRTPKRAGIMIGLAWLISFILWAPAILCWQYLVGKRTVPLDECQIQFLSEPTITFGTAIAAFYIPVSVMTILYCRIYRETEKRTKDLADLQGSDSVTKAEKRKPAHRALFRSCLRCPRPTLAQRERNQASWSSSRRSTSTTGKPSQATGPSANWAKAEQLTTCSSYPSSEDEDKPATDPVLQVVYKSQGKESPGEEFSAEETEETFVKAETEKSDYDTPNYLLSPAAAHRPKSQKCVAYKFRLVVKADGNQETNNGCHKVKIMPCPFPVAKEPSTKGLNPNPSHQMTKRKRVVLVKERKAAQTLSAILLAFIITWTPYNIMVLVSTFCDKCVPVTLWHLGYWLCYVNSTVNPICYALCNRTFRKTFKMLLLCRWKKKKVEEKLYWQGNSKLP
Outline: as §1

hM2 muscarinic receptor = biological target: T3, hM2 muscarinic receptor (Homo sapiens, UniProt P08172); experiment: as above; conditions: [3H]-NMS 0.2 nM, mean ± SEM of 3-4 experiments, read-out: pKi hM2 (converted)
T3 construct: expressed in transfected cells; host or cells: CHO cells, stably transfected; membrane fractions
T3 sequence (P08172 1-466): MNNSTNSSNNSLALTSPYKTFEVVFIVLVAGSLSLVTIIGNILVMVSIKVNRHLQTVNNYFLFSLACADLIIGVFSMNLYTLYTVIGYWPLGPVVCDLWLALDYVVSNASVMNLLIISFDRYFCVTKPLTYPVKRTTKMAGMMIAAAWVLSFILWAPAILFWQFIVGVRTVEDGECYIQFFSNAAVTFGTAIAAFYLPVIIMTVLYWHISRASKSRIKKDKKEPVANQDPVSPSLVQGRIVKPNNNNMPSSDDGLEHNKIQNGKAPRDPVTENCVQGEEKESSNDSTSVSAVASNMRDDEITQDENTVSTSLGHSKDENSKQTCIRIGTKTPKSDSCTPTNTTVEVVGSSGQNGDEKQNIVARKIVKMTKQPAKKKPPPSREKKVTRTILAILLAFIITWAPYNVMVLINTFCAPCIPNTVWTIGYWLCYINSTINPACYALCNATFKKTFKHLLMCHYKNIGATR
Outline: as §1

[1] = biological target: five human muscarinic receptors subtypes (hM1–hM5); experiment: Equilibrium binding, summary statements over the five subtypes
Description: (§2) All tested compounds were purchased from Merck KGaA (Darmstadt, Germany). The radioligand binding experiments were performed with membranes from Chinese Hamster Ovary (CHO) cells stably transfected with the five cloned human muscarinic receptor subtypes (hM1-5). Membrane fractions were prepared according to the protocol, which have been previously described; membranes were stored at −80 °C until use. Nonspecific binding was defined by the radioactivity bound in the presence of 10 µM atropine.
Aliquots of membranes (25–70 µg/mL) were added and incubated for 2 h at room temperature, filtered through UniFilter GF/B plates (PerkinElmer Life and Analytical Science, Monza, Italy) using a FilterMate cell harvester (PerkinElmer Life and Analytical Science, Monza, Italy). The filters were washed several times with ice-cold MilliQ water. Then, the plates were counted in a β-counter (TopCount NXT microplate scintillation counter, PerkinElmer Life and Analytical Science, Monza, Italy).
Data points from radioligand inhibition binding curve were fitted to models using nonlinear regression equation to determine inhibitor potency (IC50) estimates, which were then converted to Ki values as appropriate.
(§3) All the results are expressed as means ± SEM obtained from 3-4 independent experiments each one performed in duplicate.

[2] = ref DrugBank [16]; cited from earlier work
hM2 subtype = biological target: T4, hM2 subtype (Homo sapiens, UniProt P08172); experiment: Full time course [3H]-NMS dissociation kinetic assay; format: binding; conditions: versus control, concentration 0.3 μM
T4 construct: expressed in transfected cells; host or cells: CHO cells, stably transfected; membrane fractions
T4 sequence (P08172 1-466): T3 sequence (P08172 1-466)
Description: as §2
Dissociation binding assays were conducted in assay buffer at room temperature as above described. Membranes were preincubated with 2 nM [^3H]-NMS for 60 min at room temperature (mix membrane). […] Nonspecific binding was measured in separately prepared tubes containing 100 µL of mix membrane plus atropine 10 µM. […]
Radioligand dissociation rates in absence or in presence of the allosteric modulator were analyzed by non linear regression according to the equation for mono-exponential decay using GraphPad Prism 5.02.
as §3

Work on Cc1cc(N)c2ccccc2[n+]1CCCCCCCCCC[n+]1c(C)cc(N)c2ccccc21 [dequalinium] yielded a Ki (hM4 muscarinic receptor) of 69.2 nM, a Ki (hM5 muscarinic receptor) of 158 nM and a Ki (hM2 muscarinic receptor) of 661 nM. The “pKi values (muscarinic subtypes overall)” value [1] was “greater than 7.0”, the logP [2] was 0.2 and the t1/2 reduction (hM2 subtype) was 17.3 fold.
